Test results from US20210236497A1 (priority 2020, published 2021).
Structures can show the parent of a compound that is named as a salt. Where two headings read alike, the source gives them in different places.

How the values were obtained:
[1] = Rats; total of multi dose; cited from earlier work
[2] = mice; following 12 days post injection; cited from earlier work
[3] = African green monkeys; 1.6 mg/kg x 14 days; total dose 22.4; cited from earlier work
[4] = cited from earlier work; for Observed toxic effect: humans
[5] = test system: nCoV-2019 (SARS-CoV2) infected Vero E6 cells; experiment: microbe, parasite or virus in culture; type: cell-based, SARS-CoV-2; conditions: for inhibition at 0.075 µM: Severe acute respiratory syndrome coronavirus 2, Vero C1008, 0.075 μM

In the case of `NC(=O)c1cn([C@@H]2O[C@H](CO)[C@@H](O)[C@H]2O)c2ncnc(N)c12` [Oya1, 4-amino-7-((2R,3R,4S,5R)-3,4-dihydroxy-5-(hydroxymethyl)tetrahydrofuran-2-yl)-7H-pyrrolo[2,3-d]pyrimidine-5-carboxamide], the “LD50, total dose” value [1] is listed as 1.2 mg/kg, the amount cleared [2] is listed as 40% and the Effect [3] is listed as “lethal”. The anti-cancer activity ([4]; Phase I clinical trials during the 1960's) was “inactive against cancer”, the tolerability in humans ([4]; Phase I clinical trials, dosing levels of Table 8) was “well tolerated” and the Observed toxic effect ([4]; daily, highest dosing regimen 120 μg/kg/day x 41 days) was 0. For the same compound, the Observed toxic effect ([4]; thrice weekly, highest dosing regimen 50-250 μg/kg/day x 45 days) was 0, the Observed toxic effect ([4]; weekly, highest dosing regimen 200 μg/kg/day x 150 days) was 0 and the “average toxicity margin or selectivity index” value [5] was 4.8. The “toxicity margin or selectivity index, high” value [5] was 8.2, the “toxicity margin or selectivity index, low” value [5] was 3.1 and the “fold increase in activity for Oya1 over chlorpromazine HCl” value ([5]; MOI 0.6, FIG. 4 and FIG. 5) was 1000 fold. The “fold increase in activity for Oya1 over chlorpromazine HCl” value ([5]; MOI 1.3, FIG. 8 and FIG. 9) was 1000 fold, the inhibition at 0.075 µM ([5]; MOI 0.6 Plate 1) was 95.5% and the inhibition at 0.075 µM ([5]; MOI 0.6 Plate 2) was 91.9%. The inhibition at 0.075 µM ([5]; Plate 1) was 93.8% and the inhibition at 0.075 µM ([5]; Plate 2) was 99.4%.

For `NC(=O)c1cn([C@@H]2O[C@H](CO)[C@@H](O)[C@H]2O)c2ncnc(N)c12` [Oya2, 4-amino-7-((2R,3R,4S,5R)-3,4-dihydroxy-5-(hydroxymethyl)tetrahydrofuran-2-yl)-7H-pyrrolo[2,3-d]pyrimidine-5-carboxamide hydrochloride], the inhibition at 0.0094 µM ([5]; Severe acute respiratory syndrome coronavirus 2, Vero C1008, 0.0094 μM, MOI 0.6 Plate 2, Table 4C) was 33.9%, the inhibition at 0.0375 µM ([5]; Severe acute respiratory syndrome coronavirus 2, Vero C1008, 0.0375 μM, Plate 2, Table 6C) was 12.2% and the inhibition at 0.075 µM ([5]; MOI 0.6 Plate 1, Table 3C) was 45.6%. It also gave an inhibition at 0.075 µM ([5]; MOI 0.6 Plate 2, Table 4C) of 83.1% and an inhibition at 0.15 µM ([5]; Severe acute respiratory syndrome coronavirus 2, Vero C1008, 0.15 μM, MOI 0.6 Plate 1, Table 3C) of 90.1%.
